Read-outs that look alike come from different tables or passages of the source. Non-standard residues stand in square brackets, D forms with d. Residues, ends and D or L forms follow the SMILES beside them. *: point of attachment. NMeW = CN[C@@H](Cc1c[nH]c2ccccc12)C(=O)O; NMeF = CN[C@@H](Cc1ccccc1)C(=O)O; NMeL = CN[C@@H](CC(C)C)C(=O)O; X3 = O=C(Cc1c[nH]c2ccccc12)*; Orn = NCCC[C@H](N)C(=O)O; PhAc = O=C(Cc1ccccc1)*; Sar = CNCC(=O)O
Key:
ETB = ETB radio receptor assay *2, 125I-endothelin-1, guinea pig kidney crude membrane fraction; type: binding, Guinea pigs; settings: relative activity, 37 °C, 90 minutes
Procedure: ETB Radio Receptor Assay *2
In the endothelin radio receptor assay, guinea pigs' kidneys were used. Guinea pigs (Std Hartrey, male 250 g, Japan SLC Ltd.) were made to have a cerebral concussion and sacrificed by bleeding from carotid arteries to pick up the kidneys and removed fat therefrom to prepare the kidneys. The obtained kidneys were sliced and homogenized by politron homogenizer in 20 ml of 50 mM Tris-HCl buffer [pH 7.4; 20 mM NaHCO3, 0.1 mM PMSF (Phenylmethylsulfonyl Fluoride), 1 mM EDTA (Ethylenediaminetetraacetic acid)] per one kidney. The homogenized kidney was applied to a centrifugation at 1,000 x g for 15 minutes and the supernatant was further applied to a centrifugation for 20 minutes at 30,000 x g. The resulting precipitate was twice washed with 50 mM Tris-HCl buffer (pH 7.4) containing 0.1 mM PMSF, 1 mM EDTA. The resultant was stored at -80 °C as a crude receptor membrane fraction and was used as the suspension in the following buffer when necessary.
740 Bq of ^125I-endothelin-1 (81.4 TBq/mmol, Du Pont, USA) as a radio ligand, the crude membrane fraction (2.1 µg protein) and samples were added to the following buffer. The reaction was performed at 37 °C, for 90 minutes in 0.2 ml of the buffer [50 mM Tris-HCl buffer (pH 7.4) containing 0.1 mM PMSF, 1 mM EDTA, 0.2% bovine serum albumin].
The reaction was stopped by fast filtration on a glass filter (GF/B, Wattman, USA) by Cell Harvestor (290 PHD, Cambridge-Technology, Great Britain), and the filter was three times washed with 50 mM Tris-HCl buffer (pH 7.4). Radio activity remained on the filter was assayed by a gamma counter.

[1] = molecular target: T1, endothelin receptor A (ETA) (Sus scrofa, UniProt Q29010); experiment: Assay of affinity for receptor (1): binding activity on ETA receptor, 125I-labeled endothelin-1, porcine heart membrane fraction; set-up: key: relative specific activity; reference cyclic pentapeptide ETA binding = 1.0; settings: specific activity, taking the binding activity of control cyclo[-D-Glu-Ala-D-aIle-Leu-D-Trp-] on receptor A as 1.0, 25°C, 1 hour
T1 construct: A membrane fraction prepared from the porcine heart; from tissue; host or cells: porcine heart membrane fraction
T1 sequence (Q29010 21-427): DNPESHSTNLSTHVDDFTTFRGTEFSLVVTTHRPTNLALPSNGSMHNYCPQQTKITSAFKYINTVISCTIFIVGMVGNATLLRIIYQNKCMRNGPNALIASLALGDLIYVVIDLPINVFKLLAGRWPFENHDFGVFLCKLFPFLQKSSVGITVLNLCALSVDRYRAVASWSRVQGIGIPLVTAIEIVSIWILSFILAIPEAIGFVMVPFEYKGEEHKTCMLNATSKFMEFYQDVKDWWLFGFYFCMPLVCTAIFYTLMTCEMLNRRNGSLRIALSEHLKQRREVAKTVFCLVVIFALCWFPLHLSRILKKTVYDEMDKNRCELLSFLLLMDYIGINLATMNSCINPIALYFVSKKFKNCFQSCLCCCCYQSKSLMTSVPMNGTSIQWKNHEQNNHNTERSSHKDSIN
Procedure: Assay of Affinity for Receptor (1) ... Binding Activity on ETA Receptor
A membrane fraction prepared from the porcine heart was diluted to 0.15 mg/ml by using a buffer solution for assay, and 100 µl of the resulting suspension of the membrane fraction was poured into each assay tube to use for assay. To this suspension of the membrane fraction was added 2 µl of 5 nM ^125I-labeled endothelin-1 solution. Further, 3 µl of a test peptide solution was added thereto, followed by incubation at a temperature of 25°C for 1 hour. Then, the resulting suspension was diluted with 900 µl of the buffer solution for assay cooled with ice, and thereafter separated into a supernatant and a precipitate by centrifugation at 12,000 X g for 10 minutes. Cell membranes and an endothelin receptor A (ETA) embedded therein were contained in the precipitate, and radioactive iodine-labeled endothelin combined with the receptor was also recovered in the precipitate. Accordingly, the amount of radioactive iodine-labeled endothelin combined with the endothelin receptor A (ETA) was determined by measuring the amount of radioactive iodine contained in the precipitate with a gamma-ray counter. The cyclic pentapeptide described in Japanese Patent Application No. 2-413328/1990, cyclo[-D-Glu-Ala-D-aIle-Leu-D-Trp-], was used as a control compound. The numerical value of ETA shown in Table 1 is the value of specific activity, taking the binding activity of this cyclic pentapeptide on the receptor A as 1.0. The binding activity (IC50) of this cyclic pentapeptide on the ETA receptor is 2x10^-6 M.

[2] = amide bond, 18-membered ring, DMF, 4 steps
[3] = HONB/DCC preactivation, TEA, 5.0 mM
[4] = HONB ester (HONB/DCC preactivation)/TEA, 5.0 mM
[5] = HONB/DCC (preformed ONB ester), TEA, 5.0 mM

## CC(C)C[C@@H]1NC(=O)[C@@H](CC(C)C)NC(=O)[C@H]2CCCN2C(=O)[C@H](CC(=O)O)NC(=O)[C@@H](CC(=O)O)NC(=O)[C@@H](Cc2c[nH]c3ccccc23)NC1=O [Example 31, Cyclo[-D-Asp-Asp-D-Pro-D-Leu-Leu-D-Trp-]] (cyclo(D[dP][dL]L[dW][dD]))
ETB
  Binding Activity on ET Receptor (R. act.) ETB*2: 1.0
[1]
  Binding Activity on ET Receptor (R. act.) ETA: 2.6

## CC(C)C[C@@H]1NC(=O)[C@@H](CC(C)C)NC(=O)[C@H](CC(=O)O)NC(=O)[C@H](C)NC(=O)[C@@H](CCC(=O)O)NC(=O)[C@@H](Cc2c[nH]c3ccccc23)NC1=O [Example 41, Cyclo[-D-Glu-Ala-Asp-D-Leu-Leu-D-Trp-]] (cyclo(AD[dL]L[dW][dE]))
ETB
  Binding Activity on ET Receptor (R. act.) ETB*2: 26
[1]
  Binding Activity on ET Receptor (R. act.) ETA: 2.1

## CC(C)C[C@@H]1NC(=O)[C@@H](CC(C)C)NC(=O)[C@H](CC(=O)O)NC(=O)CN(C)C(=O)[C@@H](CC(=O)O)NC(=O)[C@@H](Cc2c[nH]c3ccccc23)NC1=O [Example 46, Cyclo[-D-Asp-Sar-Asp-D-Leu-Leu-D-Trp-]] (cyclo(D[dL]L[dW][dD][Sar]))
ETB
  Binding Activity on ET Receptor (R. act.) ETB*2: 75
[1]
  Binding Activity on ET Receptor (R. act.) ETA: 8.1

## CC(C)C[C@@H]1NC(=O)[C@@H](CC(C)C)NC(=O)[C@H](CC(=O)O)NC(=O)[C@H](CC(C)C)N(C)C(=O)[C@@H](CC(=O)O)NC(=O)[C@@H](Cc2c[nH]c3ccccc23)NC1=O [Example 47, Cyclo[-D-Asp-N-MeLeu-Asp-D-Leu-Leu-D-Trp-]] (cyclo(D[dL]L[dW][dD][NMeL]))
ETB
  Binding Activity on ET Receptor (R. act.) ETB*2: 17
[1]
  Binding Activity on ET Receptor (R. act.) ETA: 6.8

## CC(C)C[C@@H]1NC(=O)[C@@H](CC(C)C)NC(=O)[C@H](CC(=O)O)NC(=O)[C@H](Cc2ccccc2)N(C)C(=O)[C@@H](CC(=O)O)NC(=O)[C@@H](Cc2c[nH]c3ccccc23)NC1=O [Example 48, Cyclo[-D-Asp-N-MePhe-Asp-D-Leu-Leu-D-Trp-]] (cyclo(D[dL]L[dW][dD][NMeF]))
ETB
  Binding Activity on ET Receptor (R. act.) ETB*2: 13
[1]
  Binding Activity on ET Receptor (R. act.) ETA: 2.7

## CC(C)C[C@@H]1NC(=O)[C@@H](CC(C)C)NC(=O)[C@H](CC(=O)O)NC(=O)[C@H](Cc2c[nH]c3ccccc23)N(C)C(=O)[C@@H](CC(=O)O)NC(=O)[C@@H](Cc2c[nH]c3ccccc23)NC1=O [Example 67, Cyclo[-D-Asp-N-MeTrp-Asp-D-Leu-Leu-D-Trp-]] (cyclo(D[dL]L[dW][dD][NMeW]))
ETB
  Binding Activity on ET Receptor (R. act.) ETB*2: 30
[1]
  Binding Activity on ET Receptor (R. act.) ETA: 9.1

## CC(C)C[C@@H]1NC(=O)[C@@H](CC(C)C)NC(=O)[C@H](CC(=O)O)NC(=O)[C@H](CCCNC(=O)Cc2ccccc2)NC(=O)[C@@H](CC(=O)O)NC(=O)[C@@H](Cc2c[nH]c3ccccc23)NC1=O [Example 80, cyclo[-D-Asp-Orn(COCH2Ph)-Asp-D-Leu-Leu-D-Trp-]] (cyclo(D[dL]L[dW][dD][Orn](PhAc)))
ETB
  Binding Activity on ET Receptor (R. act.) ETB*2: 380
[1]
  Binding Activity on ET Receptor (R. act.) ETA: 260

## CC(C)C[C@@H]1NC(=O)[C@@H](CC(C)C)NC(=O)[C@H](CC(=O)O)NC(=O)[C@H](CCCNC(=O)Cc2c[nH]c3ccccc23)NC(=O)[C@@H](CC(=O)O)NC(=O)[C@@H](Cc2c[nH]c3ccccc23)NC1=O [Example 82, cyclo[-D-Asp-Orn(COCH2-Ind)-Asp-D-Leu-Leu-D-Trp-]] (cyclo(D[dL]L[dW][dD][Orn](X3)))
ETB
  Binding Activity on ET Receptor (R. act.) ETB*2: 500
[1]
  Binding Activity on ET Receptor (R. act.) ETA: 240

## CC(C)C[C@@H]1NC(=O)[C@@H](CC(C)C)NC(=O)[C@H](CC(=O)O)NC(=O)[C@H](Cc2c[nH]cn2)NC(=O)[C@@H](CC(=O)O)NC(=O)[C@@H](Cc2c[nH]c3ccccc23)NC1=O [Example 83, Cyclo[-D-Asp-His-Asp-D-Leu-Leu-D-Trp-]] (cyclo(D[dL]L[dW][dD]H))
ETB
  Binding Activity on ET Receptor (R. act.) ETB*2: 43
[1]
  Binding Activity on ET Receptor (R. act.) ETA: 15

## CC(C)C[C@@H]1NC(=O)[C@@H](CC(C)C)NC(=O)[C@H](CC(=O)O)NC(=O)[C@H](Cc2c[nH]c3ccccc23)NC(=O)[C@@H](CC(=O)O)NC(=O)[C@@H](Cc2cn(C)c3ccccc23)NC1=O [Example 95, Cyclo[-D-Asp-Trp-Asp-D-Leu-Leu-D-Trp(Me)-]]
ETB
  Binding Activity on ET Receptor (R. act.) ETB*2: 330
[1]
  Binding Activity on ET Receptor (R. act.) ETA: 110

## H-Acbu-Leu-dTrp-dAsp(OBzl)-Trp-Asp(OBzl)-ONB
[2]; the molecule shown is the open-chain precursor, HONB/DCC (preformed ONB ester), TEA, 5.0 mM
  ring closure, yield after HPLC: 10.4%

## cyclo[-D-Asp-Ala-Asp-D-Leu-Leu-D-Trp-]
[2]; [3]
  ring closure, yield after HPLC: 18.2%

## cyclo[-D-Asp-Ala-D-Asp-D-Leu-Leu-D-Trp-]
[2]; [3]
  ring closure, yield after HPLC: 15.3%

## cyclo[-D-Asp-Ala-D-Glu-D-Leu-Leu-D-Trp-]
[2]; [3]
  ring closure, yield after HPLC: 10.8%

## cyclo[-D-Asp-Ala-Glu-D-Leu-Leu-D-Trp-]
[2]; [3]
  ring closure, yield after HPLC: 24.1%

## cyclo[-D-Asp-Asn(CH2CH2-Ind)-Asp-D-Leu-Leu-D-Trp-]
[2]; HONB/DCC (preactivation), HCl/dioxane, TEA, 3.2 mM
  ring closure, yield after HPLC: 19.4%

## cyclo[-D-Asp-Asn(CH2CH2-Ind)-Asp-D-Thg(2)-Leu-D-Trp-]
[2]; HONB/DCC preactivation, HCl, TEA, 5.0 mM
  ring closure, yield after HPLC: 9.5%

## cyclo[-D-Asp-Asn(CH2CH2Ph)-Asp-D-Leu-Leu-D-Trp-]
[2]; HONB/DCC (preactivation), HCl/dioxane, TEA, 3.5 mM
  ring closure, yield after HPLC: 24.1%

## cyclo[-D-Asp-Asn(CH2Ph)-Asp-D-Leu-Leu-D-Trp-]
[2]; HONB ester (HONB/DCC preactivation)/TEA, 3.5 mM
  ring closure, yield after HPLC: 23.8%

## cyclo[-D-Asp-Asp-Ala-D-Leu-Leu-D-Trp-]
[2]; [4]
  ring closure, yield after HPLC: 17.8%

## cyclo[-D-Asp-Gln(Bzl)-Asp-D-Thg(2)-Leu-D-Trp-]
[2]; HONB/DCC preactivation, HCl, TEA, 5.1 mM
  ring closure, yield after HPLC: 8.8%

## cyclo[-D-Asp-Glu-Ala-D-Leu-Leu-D-Trp-]
[2]; [4]
  ring closure, yield after HPLC: 20.6%

## cyclo[-D-Asp-Gly-Ala-D-Leu-Leu-D-Trp-]
[2]; HONB ester (HONB/DCC preactivation)/TEA, 5.9 mM
  ring closure, yield after HPLC: 19.2%

## cyclo[-D-Asp-Hyp(Bzl)-Asp-D-Thg(2)-Leu-D-Trp-]
[2]; [5]
  ring closure, yield after HPLC: 5.7%

## cyclo[-D-Asp-Orn(COCH2-Ind)-Asp-D-Leu-Leu-D-Trp-]
[2]; HONB/DCC (preformed ONB ester), TEA, 4.9 mM
  ring closure, yield after HPLC: 12.5%

## cyclo[-D-Asp-Orn(COCH2CH2Ph)-Asp-D-Leu-Leu-D-Trp-]
[2]; HONB/DCC (preformed ONB ester), TEA, 5.1 mM
  ring closure, yield after HPLC: 40.9%

## cyclo[-D-Asp-Orn(COCH2Ph)-Asp-D-Leu-Leu-D-Trp-]
[2]; HONB/DCC (preformed ONB ester), TEA, 4.7 mM
  ring closure, yield after HPLC: 2.9%

## cyclo[-D-Asp-Orn(COPh)-Asp-D-Leu-Leu-D-Trp-]
[2]; [5]
  ring closure, yield after HPLC: 48.1%
